According to US20090155241A1, “Prophylactic/therapeutic agent for cancer” (JAPANESE FOUNDATION FOR CANCER RESEARCH, priority 2005, published 2009):

How the values were obtained:
[1] = tested on: SF268/ACS5 and SF268/mock cells; assay: Cell viability after anticancer drug treatment, SF268/mock and SF268/ACS5; type: cell-based, human; conditions: 48 hours; etoposide 1, 3 or 10 µg/ml, 5-fluorouracil 30, 100 or 300 µg/ml; FIG. 6A
Method: Changes of anticancer drug sensitivity in cancer cells by expression of ACS5 were examined. After 1, 3 or 10 µg/ml of etoposide or 30, 100 or 300 µg/ml of 5-fluorouracil was added to SF268/ACS5 established in EXAMPLE 4(2), which are cells capable of stably and highly expressing ACS5, and SF268/mock cells for control, incubation was performed in RPMI-1640 medium for 48 hours. After adding 20 μl of CellTiter 96AQueous One Solution Cell Proliferation Assay Kit (manufactured by Promega) and reacting for an hour, the cell viability was determined by measuring absorbance at 490 nm and expressed by % based on the value when no etoposide was added or no 5-fluorouracil was added (FIG. 6A).

[2] = tested on: Human lung cancer NCI-H23; assay: Growth inhibitory effect in nude mice bearing p53-mutated cancer; type: in vivo, BALB/cAJcl-nu nude mice
Method: In order to examine the p53-mutated cancer growth inhibitory effect by apoptosis induction via Triacsin c-induced ACS activity inhibition in vivo, a test for administering p53-mutated cancer-bearing nude mice was performed. Human lung cancer NCI-H23 was used as the p53-mutated cancer cell line and implanted subcutaneously into BALB/cAJcl-nu nude mice (9 weeks old). On day 0 when the tumor volume reached 50-150 mm^3, 40 μl (30 mg/kg/day) of Triacsin c was administered by intratumoral injection (n=5). Triacsin c was administered for 3 consecutive days on days 0, 1 and 2. For control group, 40 μl of saline was administered by the same dosing schedule (n=5). For evaluation of tumor volume, the length (L) and width (W) of the tumor were measured, and the tumor volume (TV) was calculated as TV=L×W×W/2. Relative tumor volume was determined as the value when a mean value of the tumor volume on day 0 in control group was made 1. Tumor growth was measured for 21 days after drug administration. Statistical significance was determined with a Student t test.

[3] = tested on: SF268 cells; assay: Cell growth inhibition in SF268 cells; type: cell-based, human; conditions: about 4 μM (1 to 4 μM), treated for 48 hours; FIG. 4C
Method: (§1) NCI-H23, DMS114, HCT-15, KM-12, SF268 and U251 cells, which are p53-mutated cancer cells, were incubated in RPMI-1640 medium containing 4 or 8 μM Triacsin c for 48 hours. On the other hand, human normal cell lines TIG108, TIG109, ASF4-1, CCD33Co and TIG114 cells were incubated in MEM containing 4 or 8 μM Triacsin c for 48 hours. After completion of the incubation, 20 μl of CellTiter 96AQueous One Solution Cell Proliferation Assay Kit (manufactured by Promega Corp.) was added and reacted for an hour. Absorbance was then measured at 490 nm.
(§2) In addition, the caspase activation as an index of apoptosis was examined.

[4] = tested on: SF268/ACS5 cells; assay: Caspase activation in ACS5-expressing SF268 cells; type: cell-based, human; conditions: with expression of ACS5; FIG. 4D
Method: (§3) In order to examine if the cell growth inhibitory effect by Triacsin c was induced by apoptosis, the caspase activation was measured as an index of the apoptosis induction using acetyl-Asp-Glu-Val-Asp-(4-methylcoumaryl-7-amide) as a substrate.
as §2

[5] = tested on: human normal cell lines TIG108, TIG109, ASF4-1, CCD33Co and TIG114; assay: Cell growth inhibition, CellTiter 96 AQueous One, human normal cell lines; type: cell-based; conditions: 4 or 8 μM, 48 hours, MEM; FIG. 3A
Method: as §1
(§4) The results are shown by % based on absorbance in the absence of Triacsin c.

[6] = tested on: fatty acid metabolizing enzyme ACS; conditions: Biochem. Biophys. Acta, 921, 595-598, 1987; cited from earlier work
[7] = tested on: SF268/ACS5 cells; assay: Cell growth inhibition in ACS5-expressing SF268 cells; type: cell-based, human; conditions: FIG. 4C
Text: To examine if the p53-mutated cancer cell-selective apoptosis by Triacsin c was induced by ACS activity inhibition, cells stably expressing Triacsin c-resistant ACS isozyme ACS5 were established as follows. The retroviral vector pHa-ACS5—FLAG-IRES-DHFR constructed in EXAMPLE 4(1) and empty vector pHa-IRES-DHFR were introduced into mouse fibroblast PA317 using mammalian transfection kit (Stratagene) to give viral stock. The resulting viral stock was further infected into human glioma SF268 cells and selected with 100 ng/ml of methotrexate as a selective agent to give the stably expressing strain SF268/ACS5 and SF268/mock for control. The cell extract from each cell was analyzed by western blot using anti-FLAG-M2 antibody (Sigma) (and anti-tubulin antibody (Sigma) for control).
as §2

[8] = tested on: p53-mutated cancer cells (NCI-H23, DMS114, HCT-15, KM-12, SF268, U251); assay: Cell growth inhibition, CellTiter 96 AQueous One, p53-mutated cancer cells; type: cell-based, human; conditions: 4 or 8 μM, 48 hours, RPMI-1640; FIG. 3A
Method: as §1, §4

[9] = tested on: p53-mutated cancer cells; assay: Caspase activation as index of apoptosis induction (Ac-DEVD-MCA substrate); type: cell-based, human; conditions: 8 μM, 30 hours, RPMI medium; FIG. 3B
Method: as §3

[10] = tested on: ACS; assay: Intracellular ACS activity in cell extract ([14C]-palmitic acid); type: cell-based, human; conditions: 4 μM, 24 hours, FIG. 4B
Method: The ACS activity was assayed by the method of Banis, et al. (Biochem. Biophys. Acta, 348, 210-220, 1974). To the cell extract (100 μl) obtained by homogenization, 1.2 μmol magnesium chloride, 5 μmol ATP, 3 μmol potassium fluoride, 0.1 μmol coenzyme A, 3 μmol 2-mercaptoethanol, 0.03 μmol palmitic acid and 0.1 μCi [^14C]-palmitic acid (150 μl) were added and the mixture was reacted at 37° C. for 5 minutes. After the reaction was terminated by adding 2.25 ml of isopropanol-heptane-1M sulfuric acid (40:10:1), 1.5 ml of heptane and 1 ml of water were added and the upper layer was removed. The lower layer containing [^14C]-palmitoyl CoA produced after the reaction was washed twice with 2 ml of heptane-8 mg of palmitic acid, and the ^14C level was measured using a liquid scintillation counter.
The ACS activities of SF268/mock cells and SF268/ACS5 cells were assayed by the method described in EXAMPLE 4(3).

Structure (SMILES)	cell viability in SF268/ACS5 as compared to SF268/mock [1]	growth inhibitory effect (cell viability) [1]	tumor volume versus control group ([2]; 30 mg/kg/day intratumoral injection, days 0, 1 and 2, measured for 21 days, p<0.05, FIG. 5)	weight loss ([2]; cancer-bearing nude mice, 30 mg/kg/day intratumoral, 3 consecutive days)	cell growth [3]	caspase activation [4]	cell growth inhibitory effect [5]	inhibition activity against ACS [6]	Triacsin c-induced cell growth inhibitory effect [7]	cell growth inhibitory effect [8]	caspase activation [9]	intracellular ACS activity ([10]; SF268/ACS5 cells (ACS5-overexpressed))	intracellular ACS activity ([10]; SF268/mock cells)
O=c1[nH]cc(F)c(=O)[nH]1 [5-fluorouracil]	significantly high cell viability	growth inhibitory effect was produced concentration-dependently	–	–	–	–	–	–	–	–	–	–	–
CCCC=CCC=CC=CC=NN=NO [Triacsin c, 1-Hydroxy-3-undeca-2,4,7-triene-1-ylidenetriaz-1-ene]	–	–	significant tumor regression effect	any weight loss was not observed	strongly inhibited the growth	strongly counteracted	no cell growth inhibitory effect was observed	specific inhibition activity	almost completely cancelled	potent cell growth inhibitory effect	strong activation of caspase	any significant reduction of the ACS activity was not observed	markedly reduced
COc1cc([C@@H]2c3cc4c(cc3[C@@H](O[C@@H]3O[C@@H]5CO[C@@H](C)O[C@H]5[C@H](O)[C@H]3O)[C@H]3COC(=O)[C@H]23)OCO4)cc(OC)c1O [etoposide]	significantly high cell viability	growth inhibitory effect was produced concentration-dependently	–	–	–	–	–	–	–	–	–	–	–
